One experiment deals with C57BL/6J mice. Nature of the experiment: Survival in LPS induced ALI model (FIG. 2B). In kind it is in vivo. The conditions noted are these: LPS 20 mg/kg IT; 0.3 mg/kg (0.1 μmol/kg) IT every 24 hours, 3 doses, survival to 72 hours. Here is the method: FIGS. 2A-2B: Single and repeat administration of cationic alkyl modified C-type Natriuretic Peptides increases probability of survival in LPS induced Sepsis and ALI animal models. FIG. 2A) Sepsis induction: Male C57BL/6J mice (n=10 per group; 3 groups) were injected IP with LPS (15 mg/kg) and treated with various test articles, including cationic alkyl modified CNPs (SEQ ID NO: 31 and 29; 0.3 mg/kg (0.1 μmol/kg) SC). The control group received LPS treatment without any test article. The test articles were administered immediately after LPS administration (marked with vertical dotted lines). Survival was monitored every 2 hours from 8-56 hours, after which the surviving mice were euthanized under isoflurane anesthesia. […] Survival was monitored every 8 hours for 72 hours, after which the surviving mice were euthanized under isoflurane anesthesia. […]
Animal care and treatment: Male C57BL/6J mice (6 weeks-old) were purchased from Kyudo (Saga, Japan) and maintained under a 12-hour light/12-hour dark cycle with free access to water and standard mouse diet (MF diet, Oriental Yeast Co., Ltd. Tokyo, Japan). […] Survival was monitored every 2 hours from 8-56 hours, after which the mice were euthanized under isoflurane anesthesia. […] Survival was monitored every 8 hours for 72 hours, after which the mice were euthanized under isoflurane anesthesia. […]

For another experiment, the target named is T1, human NPRB (Homo sapiens, UniProt P20594).
T1 construct: NPRB R1-T433, (GenBank Accn. #NP_003986.2); made in house; host or cells: Expi293 cells
T1 sequence (P20594 23-455): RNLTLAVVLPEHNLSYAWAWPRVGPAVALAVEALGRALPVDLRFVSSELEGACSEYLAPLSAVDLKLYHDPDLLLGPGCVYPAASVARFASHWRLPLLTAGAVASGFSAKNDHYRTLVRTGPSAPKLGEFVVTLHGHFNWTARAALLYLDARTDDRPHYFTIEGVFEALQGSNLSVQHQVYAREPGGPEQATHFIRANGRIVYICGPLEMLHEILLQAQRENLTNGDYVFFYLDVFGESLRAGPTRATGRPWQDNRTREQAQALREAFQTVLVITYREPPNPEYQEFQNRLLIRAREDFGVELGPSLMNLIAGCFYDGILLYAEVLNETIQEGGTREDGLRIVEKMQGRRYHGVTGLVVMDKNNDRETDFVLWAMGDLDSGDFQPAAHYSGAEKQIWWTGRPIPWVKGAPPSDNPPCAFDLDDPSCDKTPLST
The experiment in a line: Fluorescence polarization (FP) assay with CNP-F* probe, NPRB. In kind it is binding. The settings on record: 150 nM test article, 5 nM CNP-F*, 50 nM human NPRB. Here is the method: Error bars represent standard error of the mean. […] NO.
In the presence of [SEQ ID.
The CNP-F* probe was incubated at a final concentration of 5 nM in the presence of 50 nM human NPRB or NPRC in an assay buffer containing PBS, pH 7.4 and 0.01% Triton X-100. A […] volume of CNP-F* probe and NPR were dispensed into a black 96-well Costar flat-bottom polystyrene plate prior to FP measurement. Next, […] volume of SEQ ID. No. 31 (final concentration 150 nM) was added to the premixed probe and NPR. The plate was incubated at room temperature for 10 min. Fluorescence polarization was then measured on Flexstation 3 (excitation wavelength: 480 nm; emission wavelength: 525 nm and cutoff at 515 nm).
CNP-F* was prepared using solid phase peptide synthesis. […] Next, the crude linear peptide was cleavage with 95% TFA in the presence of carbocation scavengers and ether precipitation.
For orientation: Fluorescence polarisation rises when a labelled molecule tumbles more slowly, as on binding a larger partner.

SMILES strings stand for the structures. Bridge positions count the residues as written; N and C are the ends. Square brackets hold non-standard residues; d marks the D form. Peptide text beside a SMILES is read from it. * marks the point of attachment. Palmitoyl = CCCCCCCCCCCCCCCC(=O)*; Dab = NCC[C@H](N)C(=O)O; Dap = NC[C@H](N)C(=O)O; AEEA = NCCOCCOCC(=O)O

Consider `CCCCCCCCCCCCCCCC(=O)NCCOCCOCC(=O)NCCOCCOCC(=O)NCCOCCOCC(=O)N[C@@H](CCN)C(=O)N[C@@H](CCN)C(=O)NCC(=O)N[C@@H](CC(C)C)C(=O)N[C@@H](CO)C(=O)N[C@@H](CCCCN)C(=O)NCC(=O)N[C@H]1CSSC[C@@H](C(=O)O)NC(=O)CNC(=O)[C@H](CC(C)C)NC(=O)CNC(=O)[C@H](CO)NC(=O)[C@H](CCC(N)=O)NC(=O)[C@H](CO)NC(=O)CNC(=O)[C@H]([C@@H](C)CC)NC(=O)[C@H](CCCNC(=N)N)NC(=O)[C@H](CC(=O)O)NC(=O)[C@H](CC(C)C)NC(=O)[C@H](CCCCN)NC(=O)[C@H](CC(C)C)NC(=O)CNC(=O)[C@H](Cc2ccccc2)NC1=O` [SEQ ID NO: 29] ({Palmitoyl-AEEA-AEEA-AEEA}-[Dab][Dab]GLSKGCFGLKLDRIGSQSGLGC-OH; disulfide 8-24; C-terminus assumed), for which the Survival result in the experiment on C57BL/6J mice is recorded as “effective in improving survival”. As for `CCCCCCCCCCCCCCCC(=O)NCCOCCOCC(=O)NCCOCCOCC(=O)NCCOCCOCC(=O)N[C@@H](CN)C(=O)N[C@@H](CN)C(=O)NCC(=O)N[C@@H](CC(C)C)C(=O)N[C@@H](CO)C(=O)N[C@@H](CCCCN)C(=O)NCC(=O)N[C@H]1CSSC[C@@H](C(=O)O)NC(=O)CNC(=O)[C@H](CC(C)C)NC(=O)CNC(=O)[C@H](CO)NC(=O)[C@H](CCC(N)=O)NC(=O)[C@H](CO)NC(=O)CNC(=O)[C@H]([C@@H](C)CC)NC(=O)[C@H](CCCNC(=N)N)NC(=O)[C@H](CC(=O)O)NC(=O)[C@H](CC(C)C)NC(=O)[C@H](CCCCN)NC(=O)[C@H](CC(C)C)NC(=O)CNC(=O)[C@H](Cc2ccccc2)NC1=O` [SEQ ID NO: 31] ({Palmitoyl-AEEA-AEEA-AEEA}-[Dap][Dap]GLSKGCFGLKLDRIGSQSGLGC-OH; disulfide 8-24; C-terminus assumed), the Survival entry in the experiment with C57BL/6J mice is given as “effective in improving survival”. The “Binding to NPRB (FP signal of CNP-F* probe)” value on human NPRB is reported as “low FP signal demonstrates binding”.
